The target of this test is T1, PYL10 (Arabidopsis thaliana, UniProt Q8H1R0).
T1 sequence (Q8H1R0 1-183): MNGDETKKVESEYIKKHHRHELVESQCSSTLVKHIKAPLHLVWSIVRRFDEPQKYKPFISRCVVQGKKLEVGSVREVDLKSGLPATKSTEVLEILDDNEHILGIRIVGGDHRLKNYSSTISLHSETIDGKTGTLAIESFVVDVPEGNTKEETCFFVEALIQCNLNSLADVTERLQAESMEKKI
Nature of the test: ITC at […] °C, pH […]; supported by 1H-15N HSQC NMR titration and HAB1 phosphatase assay. The class given is binding.

Molecules are shown by their SMILES.

Regarding `CC1=CC(=O)CC(C)(C)[C@@]1(O)/C=C/C(C)=C\C(=O)O` [abscisic acid], the Kd – broadly, the free concentration of one partner at which half of the binding sites on the other are occupied at equilibrium, for simple one-to-one binding – stood at 66.2 ± 13.9 µM.

These data come from PMC4456664, “The HAB1 PP2C is inhibited by ABA-dependent PYL10 interaction” (Scientific Reports, 2015).
